Test results taken from patent US6436963B1 (priority 1998, dated 2002).

Tests used:
Septoria tritici = details: wheat (cultivar Monon), sprayed to run off at 100 ppm, inoculated after 24 hours
Erysiphe graminis = assay: Powdery Mildew of Wheat (ERYSGT), protectant spray test on wheat seedlings; assay type: in vivo; details: wheat (cultivar Monon), sprayed to run off at 100 ppm, inoculated after 24 hours
Phytophthora infestans = assay type: in vivo; details: tomatoes (cultivar Rutgers), sprayed to run off at 100 ppm, inoculated after 24 hours
Puccinia recondita = assay: Brown Rust (PUCCRT), protectant spray test on wheat seedlings; assay type: in vivo; details: wheat (cultivar Monon), sprayed to run off at 100 ppm, inoculated after 24 hours
Leptosphaeria nodorum = assay: Glume Blotch of Wheat (LEPTNO), protectant spray test on wheat seedlings; assay type: in vivo; details: wheat (cultivar Monon), sprayed to run off at 100 ppm, inoculated after 24 hours

| SMILES | SEPTTR control of plant disease (Septoria tritici) | ERYSGT control of plant disease (Erysiphe graminis) | PHYTIN control of plant disease (Phytophthora infestans) | PUCCRT control of plant disease (Puccinia recondita) | LEPTNO control of plant disease (Leptosphaeria nodorum) |
| --- | --- | --- | --- | --- | --- |
| CNC(=O)C(=NOC)c1ccccc1COc1ncc(C(O)c2ccccc2)cc1C (racemic) [Example 13] | ++ (++ = 75-100% control of plant disease) | ++ (++ = 75-100% control of plant disease) | ++ (++ = 75-100% control of plant disease) | ++ (++ = 75-100% control of plant disease) |  |
| CNC(=O)C(=NOC)c1ccccc1COc1ncc(C(O)c2ccc(F)cc2)cc1C (racemic) [Example 14] | ++ (++ = 75-100% control of plant disease) | ++ (++ = 75-100% control of plant disease) | ++ (++ = 75-100% control of plant disease) | ++ (++ = 75-100% control of plant disease) |  |
| CNC(=O)C(=NOC)c1ccccc1COc1ncc(C(O)c2ccc(Cl)cc2)cc1C (racemic) [Example 15] | ++ (++ = 75-100% control of plant disease) | ++ (++ = 75-100% control of plant disease) | ++ (++ = 75-100% control of plant disease) | ++ (++ = 75-100% control of plant disease) |  |
| CNC(=O)C(=NOC)c1ccccc1COc1ncc(C(O)c2ccc(OC(F)(F)F)cc2)cc1Cl (racemic) [Example 16] | ++ (++ = 75-100% control of plant disease) | ++ (++ = 75-100% control of plant disease) | − (− = 0-24% control of plant disease) | ++ (++ = 75-100% control of plant disease) |  |
| CNC(=O)C(=NOC)c1ccccc1COc1ncc(C(OCc2ccc(OC)cc2)c2ccccc2)cc1Cl (stereo not drawn) [Example 101] |  | ++ (++ = 75-100% control of plant disease) | ++ (++ = 75-100% control of plant disease) | ++ (++ = 75-100% control of plant disease) | + (+ = 25-74% control of plant disease) |
| CNC(=O)C(=NOC)c1ccccc1COc1ncc(C(O)c2ccc(C(F)(F)F)cc2)cc1Cl (stereo not drawn) [Example 102] |  | ++ (++ = 75-100% control of plant disease) | ++ (++ = 75-100% control of plant disease) | ++ (++ = 75-100% control of plant disease) | ++ (++ = 75-100% control of plant disease) |
| CNC(=O)C(=NOC)c1ccccc1COc1ncc(C(O)c2cccc3ccccc23)cc1Cl (stereo not drawn) [Example 103] |  | + (+ = 25-74% control of plant disease) | ++ (++ = 75-100% control of plant disease) | ++ (++ = 75-100% control of plant disease) | ++ (++ = 75-100% control of plant disease) |
| CNC(=O)C(=NOC)c1ccccc1COc1ncc(C(O)c2ccccn2)cc1Cl (stereo not drawn) [Example 105] |  | ++ (++ = 75-100% control of plant disease) | ++ (++ = 75-100% control of plant disease) | ++ (++ = 75-100% control of plant disease) | ++ (++ = 75-100% control of plant disease) |
| CNC(=O)C(=NOC)c1ccccc1COc1ncc(C(OC(C)=O)c2cccc(C)c2)cc1Cl (stereo not drawn) [Example 106] |  | ++ (++ = 75-100% control of plant disease) | ++ (++ = 75-100% control of plant disease) | ++ (++ = 75-100% control of plant disease) | ++ (++ = 75-100% control of plant disease) |
| CNC(=O)C(=NOC)c1ccccc1COc1ncc(C(COC(C)=O)(OC(C)=O)c2ccccc2)cc1Cl (stereo not drawn) [Example 107] |  | ++ (++ = 75-100% control of plant disease) | ++ (++ = 75-100% control of plant disease) | ++ (++ = 75-100% control of plant disease) | ++ (++ = 75-100% control of plant disease) |
| CNC(=O)C(=NOC)c1ccccc1COc1ncc(C(OC(C)=O)c2ccccn2)cc1Cl (stereo not drawn) [Example 108] |  | ++ (++ = 75-100% control of plant disease) | ++ (++ = 75-100% control of plant disease) | ++ (++ = 75-100% control of plant disease) | ++ (++ = 75-100% control of plant disease) |
| CNC(=O)C(=NOC)c1ccccc1COc1ncc(C(O)c2ccsc2)cc1Cl (stereo not drawn) [Example 109] |  | ++ (++ = 75-100% control of plant disease) | ++ (++ = 75-100% control of plant disease) | ++ (++ = 75-100% control of plant disease) | ++ (++ = 75-100% control of plant disease) |
| CNC(=O)C(=NOC)c1ccccc1COc1ncc(C(O)c2ccc(OC)c(OC)c2)cc1Cl (stereo not drawn) [Example 110] |  | ++ (++ = 75-100% control of plant disease) | ++ (++ = 75-100% control of plant disease) | ++ (++ = 75-100% control of plant disease) | ++ (++ = 75-100% control of plant disease) |
| CNC(=O)C(=NOC)c1ccccc1COc1ncc(C(OC(C)=O)c2cccc(C)c2)cc1Cl (stereo not drawn) [Example 112] |  | ++ (++ = 75-100% control of plant disease) | ++ (++ = 75-100% control of plant disease) | ++ (++ = 75-100% control of plant disease) | ++ (++ = 75-100% control of plant disease) |
| CNC(=O)C(=NOC)c1ccccc1COc1ncc(C(OC)c2cccc(C)c2)cc1Cl (stereo not drawn) [Example 114] |  | ++ (++ = 75-100% control of plant disease) | − (− = 0-24% control of plant disease) | ++ (++ = 75-100% control of plant disease) | ++ (++ = 75-100% control of plant disease) |
| CNC(=O)C(=NOC)c1ccccc1COc1cc(OC)c(C(OC)c2cccc(C)c2)cn1 (stereo not drawn) [Example 115] |  | + (+ = 25-74% control of plant disease) | − (− = 0-24% control of plant disease) | ++ (++ = 75-100% control of plant disease) | ++ (++ = 75-100% control of plant disease) |
| CNC(=O)C(=NOC)c1ccccc1COc1ncc(C(OC(C)=O)c2ccc(OC)c(OC)c2)cc1Cl (stereo not drawn) [Example 116] |  | ++ (++ = 75-100% control of plant disease) | + (+ = 25-74% control of plant disease) | ++ (++ = 75-100% control of plant disease) | ++ (++ = 75-100% control of plant disease) |
| CNC(=O)C(=NOC)c1ccccc1COc1ncc(C(OC(C)C)c2ccccc2)cc1Cl (stereo not drawn) [Example 117] |  | ++ (++ = 75-100% control of plant disease) | − (− = 0-24% control of plant disease) | ++ (++ = 75-100% control of plant disease) | ++ (++ = 75-100% control of plant disease) |
| CCOCCOC(c1ccccc1)c1cnc(OCc2ccccc2C(=NOC)C(=O)NC)c(Cl)c1 (stereo not drawn) [Example 118] |  | ++ (++ = 75-100% control of plant disease) | − (− = 0-24% control of plant disease) | ++ (++ = 75-100% control of plant disease) | ++ (++ = 75-100% control of plant disease) |
| CNC(=O)C(=NOC)c1ccccc1COc1ncc(C(OC(C)(C)C)c2ccccc2)cc1Cl (stereo not drawn) [Example 119] |  | ++ (++ = 75-100% control of plant disease) | ++ (++ = 75-100% control of plant disease) | ++ (++ = 75-100% control of plant disease) | ++ (++ = 75-100% control of plant disease) |
| CCCOC(c1ccccc1)c1cnc(OCc2ccccc2C(=NOC)C(=O)NC)c(Cl)c1 (stereo not drawn) [Example 120] |  | ++ (++ = 75-100% control of plant disease) | + (+ = 25-74% control of plant disease) | − (− = 0-24% control of plant disease) | + (+ = 25-74% control of plant disease) |
| CNC(=O)C(=NOC)c1ccccc1COc1ncc(C2(c3ccccc3)COC(C)(C)O2)cc1Cl (stereo not drawn) [Example 123] |  | ++ (++ = 75-100% control of plant disease) | ++ (++ = 75-100% control of plant disease) | ++ (++ = 75-100% control of plant disease) | ++ (++ = 75-100% control of plant disease) |
| CNC(=O)C(=NOC)c1ccccc1COc1ncc(C2(c3ccccc3)CO2)cc1Cl (stereo not drawn) [Example 124] |  | ++ (++ = 75-100% control of plant disease) | ++ (++ = 75-100% control of plant disease) | ++ (++ = 75-100% control of plant disease) | ++ (++ = 75-100% control of plant disease) |
| CNC(=O)C(=NOC)c1ccccc1COc1ncc(C2(c3ccccc3)COC(=S)O2)cc1Cl (stereo not drawn) [Example 125] |  | ++ (++ = 75-100% control of plant disease) | ++ (++ = 75-100% control of plant disease) | ++ (++ = 75-100% control of plant disease) | ++ (++ = 75-100% control of plant disease) |
